Source: patent publication US20230242496A1, “SOX11 INHIBITORS FOR TREATING MANTLE CELL LYMPHOMA” (Icahn School of Medicine At Mount Sinai, priority 2020, published 2023)

Key:
(His)6-SOX11-DBD protein = molecular target: T1, (His)6-SOX11-DBD protein (Homo sapiens, UniProt P35716); test: Surface Plasmon Resonance (SPR) assay; assay type: binding; details: immobilized recombinant (His)6-SOX11-DBD, 25° C., compounds 5-40 μM, mean of three experiments
T1 construct: Recombinant (His)6-SOX11-DBD protein was immobilized
T1 sequence (P35716 49-117 limits assumed): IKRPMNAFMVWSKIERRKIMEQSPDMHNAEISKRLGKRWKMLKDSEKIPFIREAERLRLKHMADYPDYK
Protocol: Surface Plasmon Resonance (SPR) Assay
Recombinant (His)6-SOX11-DBD protein was immobilized at a flow rate of 10 μl/min for 180 seconds to the right channel of a gold-coated SCR NiHC200M sensor chip (XanTec bioanalytics) placed in a Reichert 2SPR instrument (Reichert Technologies). The left channel, without immobilized protein, was used as a reference. […] Compounds flowed sequentially from the left to the right channel over the prepared sensor chip surface. 120 seconds association phase with each compound concentration was followed by 300 seconds dissociation phase with the assay buffer alone. The ka, kd, and KD values were determined from the sensograms for at least 3 concentrations of each compound by curve fitting the data using Reichert's TraceDrawer software. The mean KD value for each compound was calculated from three separate experiments.

Jeko-1 (SOX11+) = test: Cell viability assay (CellTiter-Blue resazurin reduction); assay type: cell-based; details: JeKo-1 cells; for IC50: 0-40 μM; for viability at 20 µM: 20 μM compound, normalized to 0.2% DMSO
Protocol: Cell viability was determined by a fluorometric resazurin reduction method (CellTiter-Blue; Promega, Madison, Wis.) following the manufacturer's instructions. […] Cells were incubated for 72 hours. After incubation, 20 μl CellTiter-Blue Cell was added to each well and incubated for another 2 hours. […] The number of viable cells in each treated well was calculated, based on the linear least squares regression of the standard curve (OD vs. cell concentration). The viability of cells treated with compounds was normalized to the viability of cells treated with 0.2% Dimethyl sulfoxide (DMSO). Cell counts were confirmed with Trypan Blue Exclusion Assay on the Countess automated cell counter (Invitrogen) according to the manufacturer's specifications. The average and mean standard deviation were calculated from three separate experiments. IC50 values were calculated using the GraphPad Prism (version 4.00) based on a sigmoidal dose-response equation.

Row | SMILES | Kd ((His)6-SOX11-DBD protein) [µM] | IC50 (Jeko-1 (SOX11+); Homo sapiens, JeKo-1, 72 h) [µM] | viability at 20 µM (Jeko-1 (SOX11+); Homo sapiens, JeKo-1, 72 h) [%] | viability at 20 µM (Jeko-1 (SOX11+); Homo sapiens, 72 hours) [%] | IC50 (Jeko-1 (SOX11+); Homo sapiens, 72 hours) [µM] | IC50 (Jeko-1 (SOX11+); 72 hours) [µM]
1 | CC1Sc2ccc(C(=O)Nc3ccc(S(=O)(=O)N4CCOCC4)cc3)cc2NC1=O (stereo not shown) | 137 | 11 | 18.9 |  |  | 
2 | CC1Sc2ccc(C(=O)Nc3ccc(S(=O)(=O)Nc4cccc(C(F)(F)F)c4)cc3)cc2NC1=O (stereo not shown) | 5.78 | 21 | 9.74 |  |  | 
3 | CC1Sc2ccc(C(=O)Nc3ccc(S(=O)(=O)Nc4ccc(Cl)cc4)cc3)cc2NC1=O (stereo not shown) | 0.861 | 15 | 9.99 |  |  | 
4 | Cc1ccc(NS(=O)(=O)c2ccc(NC(=O)c3ccc4c(c3)NC(=O)C(C)S4)cc2)cc1 (stereo not shown) | 12.4 | 10 | 0.51 |  |  | 
5 | Cc1ccccc1NS(=O)(=O)c1ccc(NC(=O)c2ccc3c(c2)NC(=O)C(C)S3)cc1 (stereo not shown) | 14.1 | 10 | 9.87 |  |  | 
6 | Cc1cccc(NS(=O)(=O)c2ccc(NC(=O)c3ccc4c(c3)NC(=O)C(C)S4)cc2)c1 (stereo not shown) | 1.16 | 11 | 0.58 |  |  | 
7 | CC1Sc2ccc(C(=O)Nc3cccc(S(=O)(=O)NC4CCN(C(=O)OC(C)(C)C)CC4)c3)cc2NC1=O (stereo not shown) | 142 | 15 | 13 |  |  | 
8 | CC1Sc2ccc(C(=O)Nc3cccc(S(=O)(=O)N4CCN(C(=O)OC(C)(C)C)CC4)c3)cc2NC1=O (stereo not shown) | 1.76 | 18 | 36.4 |  |  | 
9 | CC1Sc2ccc(C(=O)Nc3cccc(S(=O)(=O)NC4CCNCC4)c3)cc2NC1=O (stereo not shown) | 54.6 | > 20 | 96.6 |  |  | 
10 | CC1Sc2ccc(C(=O)Nc3cccc(S(=O)(=O)N4CCNCC4)c3)cc2NC1=O (stereo not shown) | 131 | > 20 | 114 |  |  | 
11 | O=C(Nc1cccc(S(=O)(=O)N2CCCC2)c1)c1ccc2c(c1)CCCS2 | 1.98 |  | 27.1 |  |  | 
12 | O=C(Nc1cccc(S(=O)(=O)N2CCCCC2)c1)c1ccc2c(c1)CCCS2 | 3.01 |  | 54.2 |  |  | 
13 | Cc1ccc(NC(=O)c2ccc3c(c2)N(C)C(=O)CS3)cc1S(=O)(=O)N1CCCC1 | 35.9 |  | 90.9 |  |  | 
14 | Cc1ccc(NC(=O)c2ccc3c(c2)N(C)C(=O)CS3)cc1S(=O)(=O)N1CCCCC1 | 8.89 |  | 3.42 |  |  | 
15 | O=C(Nc1ccc(S(=O)(=O)N2CCCCC2)c(Cl)c1)c1ccc2c(c1)CCCS2 | 17.6 |  | 35.1 |  |  | 
16 | CN1C(=O)CSc2ccc(C(=O)Nc3ccc(S(=O)(=O)N4CCCC4)c(Cl)c3)cc21 | 27.4 |  | 16 |  |  | 
17 | CN1C(=O)CSc2ccc(C(=O)Nc3ccc(S(=O)(=O)N4CCCCC4)c(Cl)c3)cc21 | 2.75 |  | 4.13 |  |  | 

Row | SMILES | Kd ((His)6-SOX11-DBD protein) [µM] | IC50 (Jeko-1 (SOX11+); Homo sapiens, JeKo-1, 72 h) [µM] | viability at 20 µM (Jeko-1 (SOX11+); Homo sapiens, JeKo-1, 72 h) [%] | viability at 20 µM (Jeko-1 (SOX11+); Homo sapiens, 72 hours) [%] | IC50 (Jeko-1 (SOX11+); Homo sapiens, 72 hours) [µM] | IC50 (Jeko-1 (SOX11+); 72 hours) [µM]
18 | O=C(Nc1ccc(S(=O)(=O)N2CCCC2)c(Cl)c1)c1ccc2c(c1)CCCS2 | 3.86 |  | 1.26 |  |  | 
19 | CC1Sc2ccc(C(=O)Nc3ccc(S(=O)(=O)N4CCCC4)c(Cl)c3)cc2N(C)C1=O (stereo not shown) | 20.4 |  | 8.44 |  |  | 
20 | CC1Sc2ccc(C(=O)Nc3cccc(S(=O)(=O)N4CCCC4)c3)cc2N(C)C1=O (stereo not shown) | 346 |  | 13.9 |  |  | 
21 | CC1Sc2ccc(C(=O)Nc3ccc(S(=O)(=O)N4CCCC4)c(Cl)c3)cc2NC1=O (stereo not shown) | 13.8 |  | 8.93 |  |  | 
22 | CC1Sc2ccc(C(=O)Nc3ccc(Cl)c(S(=O)(=O)N(C)C(C)C)c3)cc2NC1=O (stereo not shown) | 13.4 |  | 12 |  |  | 
23 | CC1Sc2ccc(C(=O)Nc3ccc(Cl)c(S(=O)(=O)N4CCCC4)c3)cc2NC1=O (stereo not shown) | 23.9 |  | 1.39 |  |  | 
24 | CC1Sc2ccc(C(=O)Nc3ccc(CN4CCCCC4)cc3)cc2NC1=O (stereo not shown) | 3.43 |  | 108 |  |  | 
25 | CC1Sc2ccc(C(=O)Nc3ccc(CN4CCCC4)cc3)cc2NC1=O (stereo not shown) | 71.5 |  | 104 |  |  | 
26 | CC1Sc2ccc(C(=O)Nc3ccc(CN(C)C(C)C)cc3)cc2NC1=O (stereo not shown) | 1.17 |  | 105 |  |  | 
27 | CC1Sc2ccc(C(=O)Nc3ccc(CN(C)c4ccccc4)cc3)cc2NC1=O (stereo not shown) | 3.62 |  | 84.9 |  |  | 
28 | C[C@@H]1Sc2ccc(C(=O)Nc3ccc(S(=O)(=O)Nc4ccccc4)cc3)cc2NC1=O | 31.9 | 12.5 | 12.8 |  |  | 
29 | CC1Sc2ccc(C(=O)Nc3cccc(CNc4ccc(OS(=O)(=O)F)cc4)c3)cc2NC1=O (stereo not shown) | 3.53 |  |  | 4.81 | 10 | 
30 | CC1Sc2ccc(C(=O)Nc3cccc(CNc4cccc(S(=O)(=O)F)c4)c3)cc2NC1=O (stereo not shown) | 1.9 |  |  | 44.3 | 19 | 
31 | CC1Sc2ccc(C(=O)Nc3ccc(CNc4cccc(S(=O)(=O)F)c4)cc3)cc2NC1=O (stereo not shown) | 1.65 |  |  |  |  | 16
32 | CCCN1C(=O)CSc2ccc(C(=O)Nc3ccc(S(=O)(=O)N4CCCCC4)cc3)cc21 | 5.87 | 17 | 39.9 |  |  | 
33 | CN1C(=O)COc2ccc(C(=O)Nc3ccc(S(=O)(=O)N4CCCCC4)cc3)cc21 | 5.35 | > 20 | 90.6 |  |  | 
34 | CN1C(=O)CSc2ccc(C(=O)Nc3ccc(CN4CCCCCC4)cc3)cc21 | 6.93 | > 20 | 102 |  |  | 

Now from value to compound, other results behind:

Row | Kd ((His)6-SOX11-DBD protein) [µM] | SMILES | IC50 (Jeko-1 (SOX11+); Homo sapiens, JeKo-1, 72 h) [µM] | viability at 20 µM (Jeko-1 (SOX11+); Homo sapiens, JeKo-1, 72 h) [%] | viability at 20 µM (Jeko-1 (SOX11+); Homo sapiens, 72 hours) [%] | IC50 (Jeko-1 (SOX11+); Homo sapiens, 72 hours) [µM] | IC50 (Jeko-1 (SOX11+); 72 hours) [µM]
35 | 70 | O=C(Nc1ccc(S(=O)(=O)Nc2ccccc2)cc1)c1ccc2ncccc2c1 | < 20 | 26 |  |  | 
36 | 134 | O=C(Nc1ccc(S(=O)(=O)Nc2ccccc2)cc1)c1ccc2cnccc2c1 | 15 | 6.45 |  |  | 
37 | 226 | O=C(Nc1ccc(S(=O)(=O)Nc2ccccc2)cc1)c1ccc2cncnc2c1 | > 20 | 100 |  |  | 
38 | 48.4 | O=C(Nc1ccc(S(=O)(=O)Nc2ccccc2)cc1)c1ccc2cn[nH]c2c1 | 10 | 17.2 |  |  | 
39 | 21.2 | Cc1nc2cc(C(=O)Nc3ccc(S(=O)(=O)Nc4ccccc4)cc3)ccc2s1 | 12 | 16.6 |  |  | 
40 | 230 | O=C(Nc1ccc(S(=O)(=O)Nc2ccccc2)cc1)c1ccc2nc[nH]c2c1 | > 20 | 93.6 |  |  | 
41 | 13.5 | O=C(Nc1ccc(CNc2ccccc2)cc1)c1ccc2c(c1)CCCS2 |  | 51.9 |  |  | 
42 | 7.34 | O=C(Nc1cccc(CNc2ccccc2)c1)c1ccc2c(c1)CCCS2 |  | 85.3 |  |  | 
43 | 5.41 | Cc1ccccc1COc1cccc(NC(=O)c2ccc3c(c2)NC(=O)C(C)S3)c1 (stereo not shown) |  | 110 |  |  | 
44 | 13.7 | CC1Sc2ccc(C(=O)Nc3cccc(OCc4ccccc4)c3)cc2NC1=O (stereo not shown) |  | 107 |  |  | 
45 | 7.91 | Cc1ccccc1COc1ccc(NC(=O)c2ccc3c(c2)NC(=O)C(C)S3)cc1 (stereo not shown) |  | 99.2 |  |  | 
46 | 33.7 | c1ccc(COc2ccc(CNc3ccc4cnccc4c3)cc2)cc1 |  | 1.2 |  |  | 
47 | 24.2 | c1ccc(COc2cccc(CNc3ccc4cncnc4c3)c2)cc1 |  | 1.4 |  |  | 
48 | 5.2 | c1ccc(COc2ccc(CNc3ccc4cncnc4c3)cc2)cc1 |  | 1.09 |  |  | 
49 | 47.8 | c1ccc(COc2cccc(CNc3ccc4cnccc4c3)c2)cc1 |  | 1.12 |  |  | 
50 | 0.258 | CC1Sc2ccc(C(=O)Nc3ccc(CNc4ccccc4)cc3)cc2NC1=O (stereo not shown) |  | 108 |  |  | 
51 | 8.16 | Cc1cccc(NCc2ccc(NC(=O)c3ccc4c(c3)NC(=O)C(C)S4)cc2)c1 (stereo not shown) |  | 79 |  |  | 
52 | 6.46 | O=C(CCc1c[nH]cn1)Nc1cccc(C(=O)Nc2ccc(S(=O)(=O)Nc3ccccc3)cc2)c1 | > 20 | 90.7 |  |  | 
53 | 0.805 | Nc1ccccc1CC(=O)Nc1cccc(C(=O)Nc2ccc(S(=O)(=O)Nc3ccccc3)cc2)c1 | 11 | 9.92 |  |  | 
54 | 9.61 | O=C(Nc1cccc(OCc2ccccc2)c1)c1ccc2snnc2c1 | > 20 | 98.1 |  |  | 
55 | 1.65 | O=C(Nc1ccc(OCc2ccccc2)cc1)c1ccc2snnc2c1 | > 20 | 93.6 |  |  | 
56 | 8.33 | CN(c1ccccc1)S(=O)(=O)c1cccc(NC(=O)c2ccc3snnc3c2)c1 | 10 | 10.6 |  |  | 
57 | 2.65 | CCN(c1ccccc1)S(=O)(=O)c1cccc(NC(=O)c2ccc3snnc3c2)c1 | 8.5 | 4.86 |  |  | 
58 | 4.07 | CN(c1ccccc1)S(=O)(=O)c1ccc(NC(=O)c2ccc3nncn3c2)cc1 | > 20 | 126 |  |  | 
59 | 3.58 | O=C(Nc1ccc2cccnc2c1)c1ccc(OCc2ccccc2)cc1 | 8 | 22.8 |  |  | 
